According to patent publication US20220119354A1, “DIAMINO-SUBSTITUTED PYRIDINES AND PYRIMIDINES AS HERBICIDES” (FMC Corporation, priority 2019, published 2022):

How the values were obtained:
[1] = system: rice (Oryza sativa); experiment: Test B flooded paddy test, rice; type: in vivo; conditions: Oryza sativa, 360 h; Flood, 250 g ai/ha, applied to paddy water, 2-leaf stage, visual evaluation after 13 to 15 d; read-out: Plant response rating, Rice (0 to 100 scale, 0 is no effect, 100 is complete control)
Outline: (§1)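 Visual injury scores run from 0 (no effect) to 100 (complete control), assigned by comparison with controls 13 to 15 d after treatment. Treatment went into floodwater standing 3 cm over the soil of pots holding 2-leaf plants.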

[2] = system: sedge, umbrella (small-flower umbrella sedge, Cyperus difformis); experiment: Test B flooded paddy test, umbrella sedge; type: in vivo; conditions: Cyperus difformis, 360 h; Flood, 250 g ai/ha, applied to paddy water, 2-leaf stage, visual evaluation after 13 to 15 d; read-out: Plant response rating, Sedge, Umbrella (0 to 100 scale, 0 is no effect, 100 is complete control)
Outline: as §1

SMILES | plant injury at 250 g/ha [1] | pest or weed control at 250 g/ha [2] | melting point
C[C@@H](Nc1ncc(C(F)(F)F)c(N)n1)c1cc2c(F)cccc2s1 [Compound 61, N2-[(1R)-1-(4-fluorobenzo[b]thien-2-yl)ethyl]-5-(trifluoromethyl)-2,4-pyrimidinediamine] | 0% | 90% | 137 to 141 °C
C[C@@H](Nc1ncc(C(F)(F)F)c(N)n1)c1cc2cccc(F)c2o1 [Compound 71, N2-[(1R)-1-(7-fluoro-2-benzofuranyl)ethyl]-5-(trifluoromethyl)-2,4-pyrimidinediamine] | 0% | 0% | 
C[C@@H](Nc1ncc(C(F)(F)F)c(N)n1)c1cc2c(F)cccc2o1 [Compound 73, N2-[(1R)-1-(4-fluoro-2-benzofuranyl)ethyl]-5-(trifluoromethyl)-2,4-pyrimidinediamine] | 10% | 90% | 
C[C@@H](Nc1ncc(C(F)(F)F)c(N)n1)c1cc2cccc(F)c2s1 [Compound 75, N2-[(1R)-1-(7-fluorobenzo[b]thien-2-yl)ethyl]-5-(trifluoromethyl)-2,4-pyrimidinediamine] | 0% | 98% | 
